Target: T1, DhGMPP (Dendrobium huoshanense, UniProt A0A348HAW3)
T1 construct: gene GMPP; E. coli BL21-AI crude soluble extract, not purified
T1 sequence (A0A348HAW3 1-415): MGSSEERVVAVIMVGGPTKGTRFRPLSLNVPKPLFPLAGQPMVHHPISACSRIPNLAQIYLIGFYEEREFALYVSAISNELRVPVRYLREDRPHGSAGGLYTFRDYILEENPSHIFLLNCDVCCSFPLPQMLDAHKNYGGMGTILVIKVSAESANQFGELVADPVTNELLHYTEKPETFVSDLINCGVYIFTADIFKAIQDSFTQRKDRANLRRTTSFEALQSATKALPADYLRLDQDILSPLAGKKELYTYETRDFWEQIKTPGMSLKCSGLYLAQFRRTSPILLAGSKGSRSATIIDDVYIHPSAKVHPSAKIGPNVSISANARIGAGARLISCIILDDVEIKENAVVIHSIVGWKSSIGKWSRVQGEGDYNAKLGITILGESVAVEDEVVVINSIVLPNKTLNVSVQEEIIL
Assay: HPLC ([…] nm) detection of GDP-mannose formed
Type: biochemical
Conditions: 2.5 mM GTP, 5 mM MgCl2, 50 mM Tris-HCl pH 7.4, 37 °C, 10 min, crude E. coli extract, untransformed-host extract and boiled protein as controls

Structure (SMILES)	HPLC (254 nm) detection of GDP-mannose formed (5 mM α-D-mannose-phosphate)	HPLC (254 nm) detection of GDP-mannose formed (5 mM substrate)
Nc1nc2c(ncn2[C@@H]2O[C@H](COP(=O)(O)OP(=O)(O)OP(=O)(O)O)[C@@H](O)[C@H]2O)c(=O)[nH]1 [GTP]	By utilizing GTP and α-D-mannose-phosphate as substrates, DhGMPP catalyzes the reaction to yield GDP-mannose	–
O=P(O)(O)O[C@H]1O[C@H](CO)[C@@H](O)[C@H](O)[C@@H]1O [α-D-mannose-phosphate]	–	By utilizing GTP and α-D-mannose-phosphate as substrates, DhGMPP catalyzes the reaction to yield GDP-mannose

Source: publication PMC7988358, “Characterization of GMPP from Dendrobium huoshanense yielding GDP-D-mannose” (Open Life Sciences, 2021)
